# “And” between values parts separate entries of the source, which are not always exact repeats. Equal values may be shown once.
# Columns and labels:
# male Swiss Albino mice = test: Forced swim test; type: in vivo
# Method: (§1) Twenty-four 8-week-old male Swiss Albino mice were housed in an animal room at a constant temperature (22±3° C.) and humidity (30%-70%) under a 12:12 h light-dark cycle with standard laboratory diet (Purina 5L79, Rat and Mouse 18% protein; PMI Nutrition International, Brentwood, MO, USA). Distilled water was provided ad libitum. All animal experiments were reviewed and approved by the Institutional Animal Ethical Committee (IAEC) of Radiant Research Services Pvt. Ltd (Bangalore, India). All research was conducted in accordance with the guidelines of the committee for the purpose of control and supervision of experiments on animals.
# After one week of acclimation, the animals were randomly divided by body weight into three groups (n=8 per group in each test) for oral treatment once a day, at approximately same time each day (±1 hour), for 28 consecutive days: (1) vehicle control or (2) 1-methylxanthine or (3) 1-methylxanthine plus paraxanthine. The dose administered to the mice was calculated using US Food and Drug Administration for human equivalence doses (HED), assuming a human weight of 60 kg. The following HED was used in this study: 100 mg 1-methylxanthine (Ingenious Ingredients, L.P Lewisville, TX, USA; mouse dose: 20.5 mg/kg bw/day), or 100 mg 1-methylxanthine (Ingenious Ingredients, L.P Lewisville, TX, USA; mouse dose: 20.5 mg/kg bw/day) plus 100 mg paraxanthine (ENFINITY™, Ingenious Ingredients, L.P Lewisville, TX, USA; mouse dose: 20.5 mg/kg bw/day). 0.5% Carboxy Methyl Cellulose sodium was used as vehicle and the test item formulations were prepared daily. Dosing was conducted via oral gavage using disposable polypropylene syringes with sterilized stainless steel gavage tubes. Food intake was monitored daily while water intake was ad libitum.
# During treatment period, training was accomplished on a swimming chamber at a moderate room temperature for 15 mins. The animals were adapted to this procedure daily 1 hr after dosing for 5 days in a week during the treatment period. On 28th day of respective treatment of all the animals were subjected to force swim test. Animals were forced to swim individually for 30 min in a glass jar of height 20 cm, diameter 10 cm, and filled with fresh water to a depth of 15 cm at room temperature. The parameters measured were first occurrence of climbing (the period the animal tries to climb the wall of the chamber), duration of immobility (the total time during which the animal is immobile) and total time spent in active swimming (the total duration during which the animal swims throughout the experimental period).
# acetylcholine = test: Acetylcholine level in young and old rats; type: in vivo
# Method: as §1, with “young (6-8 Week) and twenty-four old (14-16 Months)” for “8-week-old male”, “Wistar rats” for “mice”
# After one week of acclimation, the animals were randomly divided by body weight and age into six groups (n=8 per group in each test) for oral treatment once a day, at approximately same time each day (±1 hour), for 10 consecutive days: (1) vehicle control or (2) 1-methylxanthine or (3) 1-methylxanthine plus paraxanthine. The dose administered to the rat was calculated using US Food and Drug Administration for human equivalence doses (HED), assuming a human weight of 60 kg. […] Food intake was monitored daily while water intake was ad libitum. […] Body weight was recorded weekly. […]
# participants = test: Anxiety by Visual Analog Scale; type: in vivo, human; set-up: Anxiety (Visual Analog Scale) / Anxiety (VAS) MEAN (30-180) / Anxiety (VAS) Δ vs. CA: scale not given here
# Method: All supplements were orally ingested with 8 fluid ounces of cold tap water. Anxiety was measured by Visual Analog Scale (VAS) at baseline, 30, 60, 90, 120 and 180 minutes after ingestion.
# participant = test: Wakefulness by Visual Analog Scale; type: in vivo, human; conditions: Person two
# Method: One participant ingested a non-energetic placebo (maltodextrin) followed by 200 mg dose of 1-methylxanthine (1-MX) one week later, orally with 8 fluid ounces of cold tap water. Wakefulness was measured by Visual Analog Scale (VAS) at baseline, 30, 60, 90, 120 and 180 minutes after ingestion.
smiles,measurement,setting,value
"Cn1c(=O)[nH]c2nc[nH]c2c1=O [1-methylxanthine, 1-Methyl-3H-purine-2,6-dione]",Duration of immobility,"male Swiss Albino mice; 30 min forced swim, day 28",9.74 ± 0.79 min
same,duration of mobility/active swimming,"male Swiss Albino mice; 30 min forced swim, day 28",20.26 ± 0.79 min
same,number of climbing,"male Swiss Albino mice; forced swim, day 28",6.7±1.16
same,Duration of immobility lower compared to control,"male Swiss Albino mice; mouse, in vivo",5.4%
same,duration of mobility/active swimming greater compared to control,"male Swiss Albino mice; mouse, in vivo",2.8%
same,number of climbing improved compared to control,"male Swiss Albino mice; mouse, in vivo",6.0%
same,"Overall outcome on energy, endurance, mood",male Swiss Albino mice; summary,"showed improved energy and endurance, improved mood"
same,acetylcholine level,"acetylcholine; old rats, listed as 1-MX",56.33±3.42 U/ml and 56.33±3.58 U/ml
same,acetylcholine level,acetylcholine; young rats,63.35±4.12 U/ml
same,lower feelings of anxiety in comparison to CA,participants; 200 mg oral,21%
same,Anxiety (VAS) MEAN (30-180),participants; Average,58.8
same,Anxiety (VAS) Mean Δ from 0,participants; Average,+1.3
same,Anxiety (VAS) MEAN (30-180),participants; Person one,48.6
same,Anxiety (VAS) Mean Δ from 0,participants; Person one,−1.4
same,Anxiety (VAS) Δ vs. CA,participants; Person one,−26.0
same,Anxiety (Visual Analog Scale),"participants; Person one, 30 min",51
same,Anxiety (Visual Analog Scale),"participants; Person one, 60 min",40
same,Anxiety (Visual Analog Scale),"participants; Person one, 90 min",40
same,Anxiety (Visual Analog Scale),"participants; Person one, 120 min",51
same,Anxiety (Visual Analog Scale),"participants; Person one, 180 min",61
same,Anxiety (Visual Analog Scale),"participants; Person one, time 0, 200 mg oral",50
same,Anxiety (VAS) MEAN (30-180),participants; Person two,69.0
same,Anxiety (VAS) Mean Δ from 0,participants; Person two,+4.0
same,Anxiety (VAS) Δ vs. CA,participants; Person two,−5.2
same,Anxiety (Visual Analog Scale),"participants; Person two, 30 min",65
same,Anxiety (Visual Analog Scale),"participants; Person two, 60 min",65
same,Anxiety (Visual Analog Scale),"participants; Person two, 90 min",65
same,Anxiety (Visual Analog Scale),"participants; Person two, 120 min",75
same,Anxiety (Visual Analog Scale),"participants; Person two, 180 min",75
same,Anxiety (Visual Analog Scale),"participants; Person two, time 0, 200 mg oral",65
same,Wakefulness (VAS) MEAN,participant,69.0
same,Wakefulness (Visual Analog Scale),participant; 30 min,65
same,Wakefulness (Visual Analog Scale),participant; 60 min,65
same,Wakefulness (Visual Analog Scale),participant; 90 min,65
same,Wakefulness (Visual Analog Scale),participant; 120 min,75
same,Wakefulness (Visual Analog Scale),participant; 180 min,75
same,Wakefulness (Visual Analog Scale),"participant; time 0, 200 mg oral",60
